Values of other authors in PMC2965246 (Nucleic Acids Research, 2010).

Test system: GRPR
Conditions: reported value

binding affinity to the GRPR: 79 nM
Substance: bombesin [BBN]
